Test results taken from US20110028566A1, “COMPOSITIONS AND PRODUCTS CONTAINING CYCLOALIPHATIC DIOL ANTIMICROBIAL AGENTS AND METHODS OF USING THE COMPOSITIONS AND PRODUCTS” (EASTMAN CHEMICAL COMPANY, priority 2009, published 2011).

Assays:
Assay type in all cases: cell-based
[1] = system: biodiesel-acclimated bioslime; assay: 15-day biofouling control in B-100 biodiesel:Bushnell-Haas broth, visual turbidity; set-up: key to Growth (visual turbidity rating): 0 = No Growth; 1 = Slight Growth; 2 = Moderate Growth; 3 = Heavy Growth; conditions: 15 days, 22° C.; for Enhancement of the preservative (inhibitory) action of Killem biocide (in words): B-100 biodiesel, bioslime or trivalent bacterial-fungal inocula (Tables 54 & 55); for Growth (visual turbidity rating): biocide 0 mg/L, bioslime inoculum 50 uL
Method: (§1) Antimicrobial efficacy data (Table 54 & Table 55) were obtained for 1,4-CHDM with and without biocide in protection of B-100 biodiesel from microbial growth derived via either biodiesel-acclimated bioslime or trivalent bacterial-fungal inocula after 15-day exposure at 22° C. This testing was via a visual turbidity methodology. Neither micro-liter plates nor automatic plate reader could be used in this experiment due to the inherent biphasic nature of the system. B-100 biodiesel:Bushnell-Haas broth was used, which is a minimal salts medium specially designed for evaluating growth of microorganisms on hydrocarbons. Samples were evaluated visually (i.e., the more the turbidity, the more the growth, the less the turbidity, the less the growth, and no turbidity means no growth).

[2] = system: trivalent bacterial-fungal inocula; assay: as above; set-up: key: 0 = No Growth; 1 = Slight Growth; 2 = Moderate Growth; 3 = Heavy Growth; conditions: biocide 0 mg/L, 15 days, 22° C., trivalent inoculum 50 uL
Method: as §1

[3] = system: Corynebacterium xerosis ATCC #373; assay: Synergy testing in brain heart infusion media, 96-well plates; conditions: for % CHDM: relative to CHDM alone; for SI: synergy index
Method: MICs were determined using a high-throughput microplate method. Individual antimicrobial agents were added to TSB (pH 7.3) for bacterial testing or SDB (pH 5.6) for fungal testing at the highest concentration to be tested. A serial dilution series was prepared at a dilution ratio of 1:1.3333 such that a one log range was covered in nine dilutions. Two-hundred microliters of the diluted antimicrobial agents were dispensed into four wells each of a sterile, 96-well, flat-bottom microplate (Nalge Nunc International). Four additional wells of the highest concentration were dispensed to serve as uninoculated high-level controls. Eight additional wells containing only broth medium were also prepared, four to serve as negative controls and four as positive controls. Three wells of each antimicrobial agent dilution were inoculated with one of the test strains in Table 7. The final well of each antimicrobial agent dilution was left uninoculated to serve as a control (and means of compensating) for any absorbance/turbidity due to the test compounds.
The individual antimicrobial agents listed in Table 8 were tested in combination with CHDM. The MIC values determined in the individual antimicrobial agent testing described above were used to establish a target MIC. In each experiment, MIC values for the individual antimicrobial agents and CHDM were determined in order to eliminate any variability due to comparison of data from different dates. Testing was done over a range of four concentrations separated by a factor of 1.3333 as described above. The four concentrations were the target MIC plus one dilution level higher and two dilution levels lower than the target. Combinations of antimicrobial agents and CHDM were made at 50% of the target MIC values and the higher and lower individual levels. Additionally, 50% level series were also tested with the antimicrobial agent or CHDM at one dilution level lower than the target level. The method of Kull et. al. (F. C. Kull et al., Applied Microbiology, 9, p 538-541 (1961)) was used to determine whether there was synergistic activity between CHDM and each antimicrobial agent for inhibition of each of the five microbes. MICs for the individually-tested CHDM and antimicrobial agent, as well as the concentration of CHDM and antimicrobial agent in the combination MIC were used to calculate a synergy index (SI) according to the equation: […]
where Qa and Qb are the minimum inhibitory concentrations for CHDM and a antimicrobial agent, respectively, when tested independently, and QA and QB are the concentrations of CHDM and a antimicrobial agent, respectively, in combination at an inhibitory concentration. Accordingly, synergy is defined as a SI less than one.
Experiments were also conducted using Corynebacterium xerosis, which is a bacterium known to cause body odor. […] The Corynebacterium xerosis bacterium used in this example was ATCC #373. The seed culture was grown in brain heart infusion medium. Assays were performed in brain heart infusion media in 96-well plates as described in Example 2. The brain heart infusion medium was at a pH of about 7.4. All growth was conducted at 37° C.

For `OCC1CCC(CO)CC1` (stereo not drawn) [1,4-CHDM, 1,4-cyclohexanedimethanol], the “Enhancement of the preservative (inhibitory) action of Killem biocide (in words)” value ([1]; Killem biocide 200 ppm, 1,4-CHDM 0.2-0.5 wt %) was “enhanced the preservative (inhibitory) action of the Killem biocide”, the “Enhancement of the preservative (inhibitory) action of Killem biocide (in words)” value ([1]; biocide 50 ppm or 100 ppm, or 1,4-CHDM 0.1 wt %) was “No enhancement” and the “Growth (visual turbidity rating)” value ([1]; 1,4-CHDM 0.1% (v/v)) was 3. The “Growth (visual turbidity rating)” value ([1]; 1,4-CHDM 0.2% (v/v)) was 3, the “Growth (visual turbidity rating)” value ([1]; 1,4-CHDM 0.3% (v/v)) was 3 and the “Growth (visual turbidity rating)” value ([1]; 1,4-CHDM 0.4% (v/v)) was 3. For the same compound, the “Growth (visual turbidity rating)” value ([1]; 1,4-CHDM 0.5% (v/v)) was 3, the “Growth (visual turbidity rating)” value ([2]; 1,4-CHDM 0.1% (v/v)) was 3 and the “Growth (visual turbidity rating)” value ([2]; 1,4-CHDM 0.2% (v/v)) was 3. The “Growth (visual turbidity rating)” value ([2]; 1,4-CHDM 0.3% (v/v)) was 3, the “Growth (visual turbidity rating)” value ([2]; 1,4-CHDM 0.4% (v/v)) was 3 and the “Growth (visual turbidity rating)” value ([2]; 1,4-CHDM 0.5% (v/v)) was 3. The “% CHDM” value ([3]; Day 2, CHDM with EHG) was 100.0%, the “% CHDM” value ([3]; Day 2, CHDM with TRI) was 100.0% and the “QA/a (CHDM)” value ([3]; Day 2, inhibitory concentration of CHDM alone or in combination with EHG, plate EX194-195-EHG-Syn1) was 2.110. The “QA/a (CHDM)” value ([3]; Day 2, inhibitory concentration of CHDM alone or in combination with TRI, plate EX194-195-TRI-Syn1) was 2.110, the SI ([3]; Day 2, CHDM with EHG) was 1.00 and the SI ([3]; Day 2, CHDM with TRI) was 1.00. For the same compound, the “% CHDM” value ([3]; Day 3, CHDM with EHG) was 100.0%, the “% CHDM” value ([3]; Day 3, CHDM with TRI) was 100.0% and the “QA/a (CHDM)” value ([3]; Day 3, inhibitory concentration of CHDM alone or in combination with EHG, plate EX194-195-EHG-Syn1) was 2.110. The “QA/a (CHDM)” value ([3]; Day 3, inhibitory concentration of CHDM alone or in combination with TRI, plate EX194-195-TRI-Syn1) was 2.110, the SI ([3]; Day 3, CHDM with EHG) was 1.00 and the SI ([3]; Day 3, CHDM with TRI) was 1.00.
